Measurements published in US10945771B2, “Azabicyclo[4.1.0]heptane allosteric modulators of the M4 muscarinic acetylcholine receptor” (Merck Sharp & Dohme Corp., priority 2017, dated 2021).

Target: T1, human M4 muscarinic acetylcholine receptor (Homo sapiens, UniProt P08173)
T1 construct: expressed in transfected cells; host or cells: CHO-K1
T1 sequence (P08173 1-479): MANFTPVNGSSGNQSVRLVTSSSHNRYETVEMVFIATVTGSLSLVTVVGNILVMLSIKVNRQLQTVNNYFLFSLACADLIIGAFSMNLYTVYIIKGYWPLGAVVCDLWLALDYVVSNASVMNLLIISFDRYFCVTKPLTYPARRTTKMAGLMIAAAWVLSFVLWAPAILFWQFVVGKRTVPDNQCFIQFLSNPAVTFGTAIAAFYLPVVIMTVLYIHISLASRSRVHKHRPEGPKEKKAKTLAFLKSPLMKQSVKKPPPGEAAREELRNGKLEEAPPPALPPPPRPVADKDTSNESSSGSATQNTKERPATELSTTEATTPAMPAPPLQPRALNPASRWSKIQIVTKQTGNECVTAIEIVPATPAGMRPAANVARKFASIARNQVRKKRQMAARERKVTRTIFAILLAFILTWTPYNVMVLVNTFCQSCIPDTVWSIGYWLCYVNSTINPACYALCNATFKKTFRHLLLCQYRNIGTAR
Assay: human FLIPR-based M4 PAM assay (Ca2+ dye fluorescence, CHO-K1 cells with human M4 receptor and Gαqi5)
Type: cell-based
Conditions: inflection point (IP) of dose response curve, FLIPR Tetra, acetylcholine at 20% of maximum response
Method: In a typical experiment the M4 muscarinic acetylcholine receptor modulating activity of the compounds of the present invention was determined in accordance with the following experimental method. CHO-K1 cells stably transfected with human M4 receptor and chimeric G-protein Gαqi5 (Coward P, et al., Analytical Biochemistry, 270:242-248 (1999)) are thawed from liquid N2 storage, resuspended in growth medium, plated in black, clear bottom 384 well plates, and incubated 16-20 hours at 37° C., 5% CO2. On the day of assay, growth medium is removed, the cells are washed 2 times with wash buffer, and cells are incubated in dye loading buffer at 37° C., 5% CO2 for ˜1 hour. Following dye loading the cell plates are placed in a FLIPR Tetra instrument and while monitoring dye fluorescence (excitation […]), 10 uL of test substance at increasing concentrations is added, and fluorescence values are recorded for 4 min. Next, 10 uL of acetylcholine is added (final concentration calculated so as to achieve 20% of the maximum acetycholine response), and the fluorescence reading is continued for 3.5 min. In some cases, a third addition of acetylcholine (final concentration calculated to achieve 70% of the maximal acetylcholine response) is performed. The resulting dose response curves are fit to a 4 parameter logistic equation and the final result is determined as the inflection point (IP) of the curve
CHO-K1 cells stably transfected with human M4 receptor and chimeric G-protein Gαqi5 are thawed from liquid N2 storage, resuspended in growth medium, plated in black, clear bottom 384 well plates, and incubated 16-20 hours at 37° C., 5% CO2.
On the day of assay, growth medium is removed, the cells are washed 2 times with wash buffer, and cells are incubated in dye loading buffer at 37° C., 5% CO2 for ˜1 h. Following dye loading the cell plates are placed in a FLIPR Tetra instrument and while monitoring dye fluorescence ([…]), 10 uL of test substance at increasing concentrations is added, and fluorescence values are recorded for 4 min. Next, 10 uL of acetylcholine is added (final concentration calculated so as to achieve 20% of the maximum acetycholine response), and the fluorescence reading is continued for 3.5 min. In some cases, a third addition of acetylcholine (final concentration calculated to achieve 70% of the maximal acetylcholine response) is performed.

Row | SMILES | EC50 [nM]
1 | Cc1c(N2CCC(OCC3(C)CC3)C3CC32)nc2c(c1C)C(=O)N1CCC(C)(O)CC21 (stereo not shown) [Example 25, 9-hydroxy-3,4,9-trimethyl-2-(5-((1-methylcyclopropyl)methoxy)-2-azabicyclo[4.1.0]heptan-2-yl)-8,9,10,10a-tetrahydropyrido[2,3-a]indolizin-5(7H)-one] | 195
2 | Cc1c(N2CCC(OCC3(C)CC3)C3CC32)nc2c(c1C)C(=O)N1CCOCC21 (stereo not shown) [Example 26, 3,4-dimethyl-2-(5-((1-methylcyclopropyl)methoxy)-2-azabicyclo[4.1.0]heptan-2-yl)-7,8,10,10a-tetrahydro-5H-pyrido[2′,3′:3,4]pyrrolo[2,1-c][1,4]oxazin-5-one] | 153
3 | Cc1c(N2CCC(Oc3ccc4c(c3)COC4)C3CC32)nc2c(c1C)C(=O)NC2 (stereo not shown) [Example 27, 2-(5-((1,3-dihydroisobenzofuran-5-yl)oxy)-2-azabicyclo[4.1.0]heptan-2-yl)-3,4-dimethyl-6,7-dihydro-5H-pyrrolo[3,4-b]pyridin-5-one] | 166
4 | Cc1c(N2CCC(Oc3ccc4c(c3)COCC4)C3CC32)nc2c(c1C)C(=O)NC2 (stereo not shown) [Example 35, 2-(5-(isochroman-7-yloxy)-2-azabicyclo[4.1.0]heptan-2-yl)-3,4-dimethyl-6,7-dihydro-5H-pyrrolo[3,4-b]pyridin-5-one] | 281
5 | Cc1c(N2CCC(Oc3ccc4c(c3)COC4)C3CC32)nc2c(c1C)C(=O)N(C)C2 (stereo not shown) [Example 37, 2-(5-((1,3-dihydroisobenzofuran-5-yl)oxy)-2-azabicyclo[4.1.0]heptan-2-yl)-3,4,6-trimethyl-6,7-dihydro-5H-pyrrolo[3,4-b]pyridin-5-one] | 143

Now from value to compound:

Row | EC50 [nM] | SMILES
6 | 76 | Cc1cc2c(nc1N1CCC(Oc3ccc4c(c3)COC4)C3CC31)CNC2=O (stereo not shown) [Example 28, 2-(5-((1,3-dihydroisobenzofuran-5-yl)oxy)-2-azabicyclo[4.1.0]heptan-2-yl)-3-methyl-6,7-dihydro-5H-pyrrolo[3,4-b]pyridin-5-one]
7 | 43 | Cc1cc2c(nc1N1CCC(Oc3ccc4c(c3)COC4)C3CC31)CNC2=O (stereo not shown) [Example 29, 2-(5-((1,3-dihydroisobenzofuran-5-yl)oxy)-2-azabicyclo[4.1.0]heptan-2-yl)-3-methyl-6,7-dihydro-5H-pyrrolo[3,4-b]pyridin-5-one]
8 | 727 | Cc1cc2c(nc1N1CCC(Oc3ccc4c(c3)COC4)C3CC31)CNC2=O (stereo not shown) [Example 30, 2-(5-((1,3-dihydroisobenzofuran-5-yl)oxy)-2-azabicyclo[4.1.0]heptan-2-yl)-3-methyl-6,7-dihydro-5H-pyrrolo[3,4-b]pyridin-5-one]
9 | 72 | Cc1cc2c(nc1N1CCC(Oc3ccc4c(c3)CCOC4)C3CC31)CNC2=O (stereo not shown) [Example 31, 2-(5-(isochroman-6-yloxy)-2-azabicyclo[4.1.0]heptan-2-yl)-3-methyl-6,7-dihydro-5H-pyrrolo[3,4-b]pyridin-5-one]
10 | 156 | Cc1cc2c(nc1N1CCC(Oc3ccc4c(c3)COCC4)C3CC31)CNC2=O (stereo not shown) [Example 36, 2-(5-(isochroman-7-yloxy)-2-azabicyclo[4.1.0]heptan-2-yl)-3-methyl-6,7-dihydro-5H-pyrrolo[3,4-b]pyridin-5-one]
